Measured values as given in patent US8129389B2, “Substituted oxindole derivatives, medicaments containing the latter and use thereof” (Abbott GmbH & Co. KG, priority 2005, dated 2012).
Read-outs that look alike come from different tables or passages of the source.

Target: T1, human V1b receptors (Homo sapiens, UniProt P47901)
T1 construct: expressed in transfected cells
T1 sequence (P47901 1-424): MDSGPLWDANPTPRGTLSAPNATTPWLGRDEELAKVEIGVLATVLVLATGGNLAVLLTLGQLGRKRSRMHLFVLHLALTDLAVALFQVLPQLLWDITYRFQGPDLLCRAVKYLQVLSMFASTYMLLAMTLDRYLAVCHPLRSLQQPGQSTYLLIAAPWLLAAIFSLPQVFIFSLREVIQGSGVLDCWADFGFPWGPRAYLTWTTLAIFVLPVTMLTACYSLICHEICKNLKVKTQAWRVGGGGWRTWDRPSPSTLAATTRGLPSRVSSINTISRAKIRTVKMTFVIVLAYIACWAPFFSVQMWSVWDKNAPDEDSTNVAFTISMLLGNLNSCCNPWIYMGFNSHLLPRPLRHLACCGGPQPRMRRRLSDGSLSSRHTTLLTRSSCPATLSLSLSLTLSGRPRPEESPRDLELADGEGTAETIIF
Test: Vasopressin V1b receptor binding assay
Experimental: Vasopressin V1b Receptor Binding Assay:
These DMSO solutions were diluted 1:10 with assay buffer. The substance concentration was further diluted 1:10 in the assay mixture.
The nonspecific binding was determined with 10^−6 M AVP. Determinations in triplicate were carried out.
The affinities for the human vasopressin V1b receptor were measured, and affinity constants determined, in the above assay for the inventive examples.
The affinities of the compounds (I) of the invention for the human vasopressin V1b receptor were measured in accordance with the above assays, and the affinity constants (Ki) were determined. Table 1 below details the V1b receptor affinity of selected compounds (+++ means <10 nM and ++ means 10-100 nM).

[1] = Table 1, human vasopressin V1b receptor affinity, read-out: V1b Ki
[2] = membranes from CHO-K1 cells, 3H-AVP displacement, read-out: measured Ki values, affinities for the vasopressin V1b receptor

| Compound | Ki [1] [nM] | Ki [2] [nM] |
| --- | --- | --- |
| CCOc1ccccc1C1(OC(=O)N2CCN(c3ccncc3)CC2)C(=O)N(S(=O)(=O)c2ccccc2OC)c2ccc(C#N)cc21 (centres unmarked) [Example 2, 5-Cyano-1-(2-methoxybenzenesulfonyl)-3-(2-ethoxyphenyl)-2-oxo-2,3-dihydro-1H-indol-3-yl 4-(pyridin-4-yl)piperazine-1-carboxylate] | 10 to 100 | < 100 |
| CCOc1ccccc1C1(OC(=O)N2CCN(c3ccncc3)CC2)C(=O)N(S(=O)(=O)c2ccc(OC)cc2OC)c2ccc(C#N)cc21 (centres unmarked) [Example 3, 5-Cyano-1-(2,4-dimethoxybenzenesulfonyl)-3-(2-ethoxyphenyl)-2-oxo-2,3-dihydro-1H-indol-3-yl 4-(pyridin-4-yl)piperazine-1-carboxylate] | < 10 | < 100 |
| CCOc1ccccc1C1(OC(=O)N2CCN(c3nccs3)CC2)C(=O)N(S(=O)(=O)c2ccccc2OC)c2ccc(C#N)cc21 (centres unmarked) [Example 4, 5-Cyano-1-(2-methoxybenzenesulfonyl)-3-(2-ethoxyphenyl)-2-oxo-2,3-dihydro-1H-indol-3-yl 4-(thiazol-2-yl)piperazine-1-carboxylate] | < 10 | < 100 |
| CCOc1ccccc1C1(OC(=O)N2CCN(c3ccncc3)CC2)C(=O)N(S(=O)(=O)c2ccc(F)cc2F)c2ccc(C#N)cc21 (centres unmarked) [Example 7, 5-Cyano-1-(2,4-difluorobenzenesulfonyl)-3-(2-ethoxyphenyl)-2-oxo-2,3-dihydro-1H-indol-3-yl 4-(pyridin-4-yl)piperazine-1-carboxylate] | 10 to 100 | < 100 |
| CCOc1ccccc1C1(OC(=O)N2CCN(c3ccncc3)CC2)C(=O)N(S(=O)(=O)c2ccccc2F)c2ccc(C#N)cc21 (centres unmarked) [Example 8, 5-Cyano-1-(2-fluorobenzenesulfonyl)-3-(2-ethoxyphenyl)-2-oxo-2,3-dihydro-1H-indol-3-yl 4-(pyridin-4-yl)piperazine-1-carboxylate] | 10 to 100 | < 100 |
| CCOc1ccccc1C1(OC(=O)N2CCN(c3ccncc3)CC2)C(=O)N(S(=O)(=O)c2ccccc2)c2ccc(C#N)cc21 (centres unmarked) [Example 9, 5-Cyano-1-benzenesulfonyl-3-(2-ethoxyphenyl)-2-oxo-2,3-dihydro-1H-indol-3-yl 4-(pyridin-4-yl)-piperazine-1-carboxylate] | 10 to 100 | < 100 |
| CCOc1ccccc1C1(NC(=O)N2CCN(c3ccncc3)CC2)C(=O)N(S(=O)(=O)c2ccccc2OC)c2ccc(C#N)cc21 (centres unmarked) [Example 10, 4-(Pyridin-4-yl)piperazine-1-[1-(2-methoxybenzenesulfonyl)-5-cyano-2-oxo-3-(2-ethoxyphenyl)-2,3-dihydro-1H-indol-3-yl]carboxamide] | < 10 | < 100 |
| CCOc1ccccc1C1(NC(=O)N2CCN(c3ccncc3)CC2)C(=O)N(S(=O)(=O)c2ccccc2)c2ccc(C#N)cc21 (centres unmarked) [Example 11, 4-(Pyridin-4-yl)piperazine-1-[1-benzenesulfonyl-5-cyano-2-oxo-3-(2-ethoxyphenyl)-2,3-dihydro-1H-indol-3-yl]carboxamide] | 10 to 100 | < 100 |
| CCOc1ccccc1C1(NC(=O)N2CCN(c3ccncc3)CC2)C(=O)N(S(=O)(=O)c2ccccc2F)c2ccc(C#N)cc21 (centres unmarked) [Example 12, 4-(Pyridin-4-yl)piperazine-1-[1-(2-fluorobenzenesulfonyl)-5-cyano-2-oxo-3-(2-ethoxyphenyl)-2,3-dihydro-1H-indol-3-yl]carboxamide] | < 10 | < 100 |

Results, then the molecule that gave them:

| Ki [1] [nM] | Ki [2] [nM] | Compound |
| --- | --- | --- |
| 10 to 100 | < 100 | CCOc1ccccc1C1(NC(=O)N2CCN(c3ccncc3)CC2)C(=O)N(S(=O)(=O)c2ccc(F)cc2F)c2ccc(C#N)cc21 (centres unmarked) [Example 13, 4-(Pyridin-4-yl)piperazine-1-[1-(2,4-difluorobenzenesulfonyl)-5-cyano-2-oxo-3-(2-ethoxyphenyl)-2,3-dihydro-1H-indol-3-yl]carboxamide] |
| < 10 | < 100 | CCOc1ccccc1C1(NC(=O)N2CCN(c3ccncc3)CC2)C(=O)N(S(=O)(=O)c2ccc(C#N)cc2)c2ccc(C#N)cc21 (centres unmarked) [Example 14, 4-(Pyridin-4-yl)piperazine-1-[1-(4-cyanobenzenesulfonyl)-5-cyano-2-oxo-3-(2-ethoxyphenyl)-2,3-dihydro-1H-indol-3-yl]carboxamide] |
| < 10 | < 100 | CCOc1ccccc1C1(NC(=O)N2CCN(c3ccncc3)CC2)C(=O)N(S(=O)(=O)c2ccc(C)cc2OC)c2ccc(C#N)cc21 (centres unmarked) [Example 15, 4-(Pyridin-4-yl)piperazine-1-[1-(2-methoxy-4-methylbenzenesulfonyl)-5-cyano-2-oxo-3-(2-ethoxyphenyl)-2,3-dihydro-1H-indol-3-yl]carboxamide] |
| < 10 | < 100 | CCOc1ccccc1C1(NC(=O)N2CCN(c3ccncc3)CC2)C(=O)N(S(=O)(=O)c2ccc(OC)cc2OC)c2ccc(C#N)cc21 (centres unmarked) [Example 16, 4-(Pyridin-4-yl)piperazine-1-[1-(2,4-dimethoxybenzenesulfonyl)-5-cyano-2-oxo-3-(2-ethoxyphenyl)-2,3-dihydro-1H-indol-3-yl]carboxamide] |
| < 10 | < 100 | CCOc1ccccc1C1(NC(=O)N2CCN(c3ccncc3)CC2)C(=O)N(S(=O)(=O)c2ccc([N+](=O)[O-])cc2)c2ccc(C#N)cc21 (centres unmarked) [Example 17, 4-(Pyridin-4-yl)piperazine-1-[1-(4-nitrobenzenesulfonyl)-5-cyano-2-oxo-3-(2-ethoxyphenyl)-2,3-dihydro-1H-indol-3-yl]carboxamide] |
| 10 to 100 | < 100 | CCOc1ccccc1C1(OC(=O)N2CCN(c3ccncc3)CC2)C(=O)N(S(=O)(=O)c2ccc(C#N)cc2)c2ccc(C#N)cc21 (centres unmarked) [Example 18, 1-(4-Cyanobenzenesulfonyl)-5-cyano-2-oxo-3-(2-ethoxyphenyl)-2,3-dihydro-1H-indol-3-yl 4-(pyridin-4-yl)piperazine-1-carboxylate] |
| < 10 | < 100 | CCOc1ccccc1C1(OC(=O)N2CCN(c3ccncc3)CC2)C(=O)N(S(=O)(=O)c2ccc([N+](=O)[O-])cc2)c2ccc(C#N)cc21 (centres unmarked) [Example 19, 1-(4-Nitrobenzenesulfonyl)-5-cyano-2-oxo-3-(2-ethoxyphenyl)-2,3-dihydro-1H-indol-3-yl 4-(pyridin-4-yl)piperazine-1-carboxylate] |
| < 10 | < 100 | CCOc1ccccc1C1(OC(=O)N2CCN(c3ccncc3)CC2)C(=O)N(S(=O)(=O)c2ccc(C)cc2OC)c2ccc(C#N)cc21 (centres unmarked) [Example 20] |
| 10 to 100 | < 100 | CCOc1ccccc1C1(OC(=O)N2CCN(c3ccncc3)CC2)C(=O)N(S(=O)(=O)c2ccc(F)cc2)c2ccc(C#N)cc21 (centres unmarked) [Example 21, 1-(4-Fluorobenzenesulfonyl)-5-cyano-2-oxo-3-(2-ethoxyphenyl)-2,3-dihydro-1H-indol-3-yl 4-(pyridin-4-yl)piperazine-1-carboxylate] |
| 10 to 100 | < 100 | CCOc1ccccc1C1(OC(=O)N2CCN(c3ccccn3)CC2)C(=O)N(S(=O)(=O)c2ccc(OC)cc2OC)c2ccc(C#N)cc21 (centres unmarked) [Example 25, 1-(2,4-Dimethoxybenzenesulfonyl)-5-cyano-2-oxo-3-(2-ethoxyphenyl)-2,3-dihydro-1H-indol-3-yl 4-(pyridin-2-yl)piperazine-1-carboxylate] |
